Data from US20250059207A1, “6,6-FUSED HETEROCYCLIC COMPOUNDS AS METTL3 INHIBITORS” (858 Therapeutics, Inc., priority 2021, published 2025).

These compounds were tested on MOLM-13 cells (assay: Viability assay in MOLM-13 cells (CellTiter-Glo 2.0)). Conditions: Homo sapiens, MOLM-13, 72 h, read-out: MOLM-13 IC50 (cell viability).
Type: cell-based, human
Experimental: Effects of test compounds on the proliferation and viability of human AML cells was evaluated using the MOLM-13 cell line (AddexBio Technologies cat. no. C0003003). […] Test compounds or controls (Bortezomib or DMSO) diluted in 2% DMSO/media were added to each well for final concentrations of 0.2% DMSO and 0.1-1 μM Bortezomib. The cells were incubated for 72 hours at 37° C. and 5% CO2. At the end of the 72 hour incubation, plates were removed from the incubator, cooled to room temperature and equal volume of CellTiter-Glo 2.0 (Promega) added to each well. After mixing and incubating the plate at room temperature for 10 minutes the luminescence was read using a plate reader. […] Concentration-response-curves and IC50 values were generated using Collaborative Drug Discovery software.

| SMILES | IC50 [µM] |
| --- | --- |
| O=c1c2cncc(N3CC4(CCOC4)C3)c2ccn1Cc1cn2cc(CNCC34CC(F)(C3)C4)ccc2n1 [Compound 151, 2-((6-((((3-fluorobicyclo[1.1.1]pentan-1-yl)methyl)amino)methyl)imidazo[1,2-a]pyridin-2-yl)methyl)-5-(6-oxa-2-azaspiro[3.4]octan-2-yl)-2,7-naphthyridin-1(2H)-one] | < 1 |

Same assay, conditions: MOLM-13 human AML cells, 72 hours, CellTiter-Glo 2.0; read-out: MOLM-13 IC50 (cell viability)

| IC50 [µM] | SMILES |
| --- | --- |
| 1 to 10 | O=c1c2cncc(N3CC4(CCOCC4)C3)c2ccn1Cc1cn2cc(CN3CCC4(CCOC4)C3)ccc2n1 (centres unmarked) [Compound 130, 5-{7-oxa-2-azaspiro[3.5]nonan-2-yl}-2-{[6-({2-oxa-7-azaspiro[4.4]nonan-7-yl}methyl)imidazo[1,2-a]pyridin-2-yl]methyl}-1,2-dihydro-2,7-naphthyridin-1-one] |
| 1 to 10 | O=c1c2cncc(N3CC4(CCOCC4)C3)c2ccn1Cc1cn2cc(CN3CCC(C(F)(F)F)CC3)ccc2n1 [Compound 132, 5-{7-oxa-2-azaspiro[3.5]nonan-2-yl}-2-[(6-{[4-(trifluoromethyl)piperidin-1-yl]methyl}imidazo[1,2-a]pyridin-2-yl)methyl]-1,2-dihydro-2,7-naphthyridin-1-one] |
| > 10 | CC1(C#N)CCN(Cc2ccc3nc(Cn4ccc5c(N6CC7(CCOCC7)C6)cncc5c4=O)cn3c2)CC1 [Compound 134, 4-methyl-1-({2-[(5-{7-oxa-2-azaspiro[3.5]nonan-2-yl}-1-oxo-1,2-dihydro-2,7-naphthyridin-2-yl)methyl]imidazo[1,2-a]pyridin-6-yl}methyl)piperidine-4-carbonitrile] |
| 1 to 10 | O=c1c2cncc(N3CC4(CCOCC4)C3)c2ccn1Cc1cn2cc(CN3CC4(C3)CC(F)(F)C4)ccc2n1 [Compound 135, 2-{[6-({6,6-difluoro-2-azaspiro[3.3]heptan-2-yl}methyl)imidazo[1,2-a]pyridin-2-yl]methyl}-5-{7-oxa-2-azaspiro[3.5]nonan-2-yl}-1,2-dihydro-2,7-naphthyridin-1-one] |
| 1 to 10 | O=c1c2cncc(N3CC4(CCOCC4)C3)c2ccn1Cc1cn2cc(CN3CC4(CC(F)C4)C3)ccc2n1 [Compound 136, 2-{[6-({6-fluoro-2-azaspiro[3.3]heptan-2-yl}methyl)imidazo[1,2-a]pyridin-2-yl]methyl}-5-{7-oxa-2-azaspiro[3.5]nonan-2-yl}-1,2-dihydro-2,7-naphthyridin-1-one] |
| 1 to 10 | O=c1c2cncc(N3CC4(CCOCC4)C3)c2ccn1Cc1cn2cc(CN3CCC4(CCCC4)C3)ccc2n1 [Compound 137] |
| 1 to 10 | CC1CCN(Cc2ccc3nc(Cn4ccc5c(N6CC7(CCOCC7)C6)cncc5c4=O)cn3c2)CC1 [Compound 138, 2-({6-[(4-methylpiperidin-1-yl)methyl]imidazo[1,2-a]pyridin-2-yl}methyl)-5-{7-oxa-2-azaspiro[3.5]nonan-2-yl}-1,2-dihydro-2,7-naphthyridin-1-one] |
| 1 to 10 | O=c1c2cncc(N3CC4(CCOCC4)C3)c2ccn1Cc1cn2cc(CN3CCC4(C3)CC(F)(F)C4)ccc2n1 [Compound 140, 2-{[6-({2,2-difluoro-6-azaspiro[3.4]octan-6-yl}methyl)imidazo[1,2-a]pyridin-2-yl]methyl}-5-{7-oxa-2-azaspiro[3.5]nonan-2-yl}-1,2-dihydro-2,7-naphthyridin-1-one] |
| > 10 | O=c1c2cncc(N3CC4(CCOCC4)C3)c2ccn1Cc1cn2cc(CN3CCC4(CC3)CC4(F)F)ccc2n1 [Compound 141, 2-{[6-({1,1-difluoro-6-azaspiro[2.5]octan-6-yl}methyl)imidazo[1,2-a]pyridin-2-yl]methyl}-5-{7-oxa-2-azaspiro[3.5]nonan-2-yl}-1,2-dihydro-2,7-naphthyridin-1-one] |
| 1 to 10 | O=c1c2cncc(N3CC4(C3)CC(F)(F)C4)c2ccn1Cc1cn2cc(CNCC3CC(F)C3)ccc2n1 (centres unmarked) [Compound 142, 5-{6,6-difluoro-2-azaspiro[3.3]heptan-2-yl}-2-{[6-({[(3-fluorocyclobutyl)methyl]amino}methyl)imidazo[1,2-a]pyridin-2-yl]methyl}-1,2-dihydro-2,7-naphthyridin-1-one] |
| 1 to 10 | O=c1c2cncc(N3CC4(COC4)C3)c2ccn1Cc1cn2cc(CNCC3CC(F)C3)ccc2n1 (centres unmarked) [Compound 143, 2-{[6-({[(3-fluorocyclobutyl)methyl]amino}methyl)imidazo[1,2-a]pyridin-2-yl]methyl}-5-{2-oxa-6-azaspiro[3.3]heptan-6-yl}-1,2-dihydro-2,7-naphthyridin-1-one] |
| 1 to 10 | O=c1c2cncc(N3CC4(CCCOC4)C3)c2ccn1Cc1cn2cc(CNCC3CC(F)C3)ccc2n1 (centres unmarked) [Compound 145, 2-{[6-({[(3-fluorocyclobutyl)methyl]amino}methyl)imidazo[1,2-a]pyridin-2-yl]methyl}-5-{6-oxa-2-azaspiro[3.5]nonan-2-yl}-1,2-dihydro-2,7-naphthyridin-1-one] |
| 1 to 10 | O=c1c2cncc(N3CC4(CCC(F)(F)CC4)C3)c2ccn1Cc1cn2cc(CNCC3CC(F)C3)ccc2n1 (centres unmarked) [Compound 146, 5-{7,7-difluoro-2-azaspiro[3.5]nonan-2-yl}-2-{[6-({[(3-fluorocyclobutyl)methyl]amino}methyl)imidazo[1,2-a]pyridin-2-yl]methyl}-1,2-dihydro-2,7-naphthyridin-1-one] |
| 1 to 10 | O=c1c2cncc(N3CCC4(C3)CC(F)(F)C4)c2ccn1Cc1cn2cc(CNCC3CC(F)C3)ccc2n1 (centres unmarked) [Compound 147, 5-{2,2-difluoro-6-azaspiro[3.4]octan-6-yl}-2-{[6-({[(3-fluorocyclobutyl)methyl]amino}methyl)imidazo[1,2-a]pyridin-2-yl]methyl}-1,2-dihydro-2,7-naphthyridin-1-one] |
| 1 to 10 | O=c1c2cncc(N3CC(N4CCC(F)CC4)C3)c2ccn1Cc1cn2cc(CNCC3CC(F)C3)ccc2n1 (centres unmarked) [Compound 148, 2-{[6-({[(3-fluorocyclobutyl)methyl]amino}methyl)imidazo[1,2-a]pyridin-2-yl]methyl}-5-[3-(4-fluoropiperidin-1-yl)azetidin-1-yl]-1,2-dihydro-2,7-naphthyridin-1-one] |
| 1 to 10 | O=c1c2cncc(N3CC(c4ccncc4)C3)c2ccn1Cc1cn2cc(CNCC3CC(F)C3)ccc2n1 (centres unmarked) [Compound 149, 2-{[6-({[(3-fluorocyclobutyl)methyl]amino}methyl)imidazo[1,2-a]pyridin-2-yl]methyl}-5-[3-(pyridin-4-yl)azetidin-1-yl]-1,2-dihyro-2,7-naphthyridin-1-one] |
| 1 to 10 | O=c1c2cncc(N3CC(c4ccc(F)cc4)C3)c2ccn1Cc1cn2cc(CNCC3CC(F)C3)ccc2n1 (centres unmarked) [Compound 150, 2-{[6-({[(3-fluorocyclobutyl)methyl]amino}methyl)imidazo[1,2-a]pyridin-2-yl]methyl}-5-[3-(4-fluorophenyl)azetidin-1-yl]-1,2-dihydro-2,7-naphthyridin-1-one] |
| < 1 | O=c1c2cncc(N3CC4(CCCOC4)C3)c2ccn1Cc1cn2cc(CNCC34CC(F)(C3)C4)ccc2n1 [Compound 153, 2-[(6-{[({3-fluorobicyclo[1.1.1]pentan-1-yl}methyl)amino]methyl}imidazo[1,2-a]pyridin-2-yl)methyl]-5-{6-oxa-2-azaspiro[3.5]nonan-2-yl}-1,2-dihydro-2,7-naphthyridin-1-one] |
| 1 to 10 | O=c1c2cncc(-c3ccccc3F)c2ccn1Cc1cn2cc(CNCC34CC(F)(C3)C4)ccc2n1 [Compound 154, 2-[(6-{[({3-fluorobicyclo[1.1.1]pentan-1-yl}methyl)amino]methyl}imidazo[1,2-a]pyridin-2-yl)methyl]-5-(2-fluorophenyl)-1,2-dihydro-2,7-naphthyridin-1-one] |
| 1 to 10 | NC(=O)c1ccc(-c2cncc3c(=O)n(Cc4cn5cc(CNCC67CC(F)(C6)C7)ccc5n4)ccc23)cc1 [Compound 155, 4-{7-[(6-{[({3-fluorobicyclo[1.1.1]pentan-1-yl}methyl)amino]methyl}imidazo[1,2-a]pyridin-2-yl)methyl]-8-oxo-7,8-dihydro-2,7-naphthyridin-4-yl}benzamide] |
| > 10 | O=c1c2cncc(C3CCC3)c2ccn1Cc1cn2cc(CNCC3CC(F)C3)ccc2n1 (centres unmarked) [Compound 156, 5-cyclobutyl-2-{[6-({[(3-fluorocyclobutyl)methyl]amino}methyl)imidazo[1,2-a]pyridin-2-yl]methyl}-1,2-dihydro-2,7-naphthyridin-1-one] |
| 1 to 10 | O=c1c2cncc(N3CC4(COC4)C3)c2cnn1Cc1cn2cc(CNCC34CC(F)(C3)C4)ccc2n1 [Compound 157, 3-[(6-{[({3-fluorobicyclo[1.1.1]pentan-1-yl}methyl)amino]methyl}imidazo[1,2-a]pyridin-2-yl)methyl]-8-{2-oxa-6-azaspiro[3.3]heptan-6-yl}pyrido[3,4-d]pyridazin-4-one] |
